# Results as given in patent US20080312255A1 (ASTRAZENECA AB, priority 2007, published 2008).
# Molecular target: S. aureus GyrB ATPase (Staphylococcus aureus, UniProt P0A0K8)
# Test: S. aureus GyrB ATPase inhibition (ammonium molybdate/malachite green phosphate detection)
# Assay type: biochemical
# Conditions: compound concentration of 1 μM
# Description: S. aureus GyrB ATPase Inhibition Activity: Compounds may be tested for inhibition of S. aureus GyrB ATPase activity using an ammonium molybdate/malachite green-based phosphate detection assay (Lanzetta, P. A., L. J. Alvarez, P. S. Reinach, and O. A. Candia, 1979, 100: 95-97). Assays can be performed in multiwell plates in 30 μl reactions containing: 50 mM Hepes buffer pH 7.5, 75 mM ammonium acetate, 8.0 mM magnesium chloride, 0.5 mM ethylenediaminetetraacetic acid, 5% glycerol, 1.0 mM 1,4-Dithio-DL-threitol, 200 nM bovine serum albumin, 1.0 μg/ml sheared salmon sperm DNA, 250 pM E. coli GyrA, 250 pM S. aureus GyrB, 250 μM ATP, and compound in dimethylsulfoxide. Reactions can be quenched with […] of ammonium molybdate/malachite green detection reagent containing 1.2 mM malachite green hydrochloride, 8.5 mM ammonium molybdate tetrahydrate, and 1 M hydrochloric acid. Plates can be read in an absorbance plate reader at 650 nm and percent inhibition values can be calculated using dimethylsulfoxide (2%)-containing reactions as 0% inhibition and EDTA-containing ([…]) reactions as 100% inhibition controls. An IC50 measurement of compound potency for each compound can be determined from reactions performed in the presence of 10 different compound concentrations.
# Compounds of the invention were tested in an assay substantially similar to the assay described above for measuring the inhibition of S. aureus GyrB ATPase. Percent inhibition of S. aureus GyrB ATPase at a compound concentration of 1 μM (unless otherwise noted) is disclosed in the following table: […]
# Chain of S. aureus GyrB ATPase (P0AES4 whole entry): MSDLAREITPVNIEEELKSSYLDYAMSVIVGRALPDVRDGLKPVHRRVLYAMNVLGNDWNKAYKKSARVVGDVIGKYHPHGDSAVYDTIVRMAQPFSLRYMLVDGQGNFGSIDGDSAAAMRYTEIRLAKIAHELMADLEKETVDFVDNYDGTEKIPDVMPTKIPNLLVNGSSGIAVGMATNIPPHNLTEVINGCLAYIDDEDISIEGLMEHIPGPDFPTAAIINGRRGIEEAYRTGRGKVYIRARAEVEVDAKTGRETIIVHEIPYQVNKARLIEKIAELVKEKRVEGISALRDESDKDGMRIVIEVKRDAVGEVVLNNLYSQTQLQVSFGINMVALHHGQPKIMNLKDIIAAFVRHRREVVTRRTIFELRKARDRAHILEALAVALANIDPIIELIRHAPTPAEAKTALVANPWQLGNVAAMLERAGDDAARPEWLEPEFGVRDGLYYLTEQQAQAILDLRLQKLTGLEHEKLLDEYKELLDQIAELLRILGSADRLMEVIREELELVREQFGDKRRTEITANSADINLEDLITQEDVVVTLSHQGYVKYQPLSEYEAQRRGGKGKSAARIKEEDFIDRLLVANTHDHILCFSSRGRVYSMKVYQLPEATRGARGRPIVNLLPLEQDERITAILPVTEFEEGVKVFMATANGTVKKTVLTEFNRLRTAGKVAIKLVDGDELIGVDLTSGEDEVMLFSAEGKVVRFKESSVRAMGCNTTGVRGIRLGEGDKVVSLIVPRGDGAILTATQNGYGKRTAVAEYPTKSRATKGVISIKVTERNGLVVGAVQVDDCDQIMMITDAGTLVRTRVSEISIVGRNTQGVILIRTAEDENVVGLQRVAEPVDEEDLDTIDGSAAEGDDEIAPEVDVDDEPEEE
# Chain of S. aureus GyrB ATPase (P0A0K8 whole entry): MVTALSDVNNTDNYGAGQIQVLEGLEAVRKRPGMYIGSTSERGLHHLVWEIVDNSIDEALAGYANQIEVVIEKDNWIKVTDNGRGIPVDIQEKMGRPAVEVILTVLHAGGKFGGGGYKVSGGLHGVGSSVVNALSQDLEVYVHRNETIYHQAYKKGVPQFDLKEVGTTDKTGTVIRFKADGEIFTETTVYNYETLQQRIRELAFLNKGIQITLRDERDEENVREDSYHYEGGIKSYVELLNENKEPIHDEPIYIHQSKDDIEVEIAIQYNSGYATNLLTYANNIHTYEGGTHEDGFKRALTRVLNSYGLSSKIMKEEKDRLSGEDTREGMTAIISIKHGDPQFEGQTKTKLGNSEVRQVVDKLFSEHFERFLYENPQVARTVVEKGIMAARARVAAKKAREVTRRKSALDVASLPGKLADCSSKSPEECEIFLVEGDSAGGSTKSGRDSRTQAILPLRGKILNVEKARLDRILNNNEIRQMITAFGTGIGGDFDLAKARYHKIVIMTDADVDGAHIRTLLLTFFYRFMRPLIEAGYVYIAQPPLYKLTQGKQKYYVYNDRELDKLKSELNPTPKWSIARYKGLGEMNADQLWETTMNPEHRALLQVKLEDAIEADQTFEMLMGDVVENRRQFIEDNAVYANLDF
row,SMILES,inhibition at 1 µM
1,"Cc1[nH]c(C(=O)N[C@@H]2CCN(c3nc(-c4ccn[nH]4)c(C(=O)O)s3)C[C@@H]2F)c(Cl)c1Cl [Example 24, 2-((3S,4R)-4-{[(3,4-Dichloro-5-methyl-1H-pyrrol-2-yl)carbonyl]amino}-3-fluoropiperidin-1-yl)-4-(1H-pyrazol-5-yl)-1,3-thiazole-5-carboxylic acid]",65.9%
2,"CO[C@H]1CN(c2nc(-c3cnc(C)cn3)c(C(=O)O)s2)CC[C@H]1NC(=O)c1[nH]c(C)c(Cl)c1C#N [Example 124, 2-((3S,4R)-4-(4-chloro-3-cyano-5-methyl-1H-pyrrole-2-carboxamido)-3-methoxypiperidin-1-yl)-4-(5-methylpyrazin-2-yl)thiazole-5-carboxylic acid]",104%
3,"Cc1[nH]c(C(=O)N[C@@H]2CCN(c3nc(-c4ncccc4F)c(C(=O)O)s3)C[C@@H]2OCc2ccccc2)c(C#N)c1Cl [Example 154, 2-[(3S,4R)-3-(benzyloxy)-4-{[(4-chloro-3-cyano-5-methyl-1H-pyrrol-2-yl)carbonyl]amino}piperidin-1-yl]-4-(3-fluoropyridin-2-yl)-1,3-thiazole-5-carboxylic acid]",112%
4,"CO[C@H]1CN(c2nc(-c3nc(C)c(C)n3C)c(C(=O)O)s2)CC[C@H]1NC(=O)c1[nH]c(C)c(Cl)c1Cl [Example 32, 2-((3S,4R)-4-{[(3,4-Dichloro-5-methyl-1H-pyrrol-2-yl)carbonyl]amino}-3-methoxypiperidin-1-yl)-4-(1,4,5-trimethyl-1H-imidazol-2-yl)-1,3-thiazole-5-carboxylic acid]",99.9%
5,"CO[C@H]1CN(c2nc(-c3ncccn3)c(C(=O)O)s2)CC[C@H]1NC(=O)c1[nH]c(C)c(Cl)c1Cl [Example 1, 2-((3S,4R)-4-{[(3,4-Dichloro-5-methyl-1H-pyrrol-2-yl)carbonyl]amino}-3-methoxypiperidin-1-yl)-4-pyrimidin-2-yl-1,3-thiazole-5-carboxylic acid]",99.2%
6,CCOC(=O)c1sc(N2CC[C@@H](NC(=O)c3[nH]c(C)c(Cl)c3Cl)[C@@H](OC)C2)nc1-c1nc(C)no1 [Example 84],103%
7,"CO[C@H]1CN(c2nc(-c3nccn3COCC[Si](C)(C)C)c(C(=O)O)s2)CC[C@H]1NC(=O)c1[nH]c(C)c(Cl)c1Cl [Example 16, 2-((3S,4R)-4-{[(3,4-Dichloro-5-methyl-1H-pyrrol-2-yl)carbonyl]amino}-3-methoxypiperidin-1-yl)-4-(1-{[2-(trimethylsilyl)ethoxy]methyl}-1H-imidazol-2-yl)-1,3-thiazole-5-carboxylic acid]",100%
8,"CO[C@H]1CN(c2nc(-c3cn(C)nn3)c(C(=O)O)s2)CC[C@H]1NC(=O)c1[nH]c(C)c(Cl)c1Cl [Example 109, 2-((3S,4R)-4-(3,4-dichloro-5-methyl-1H-pyrrole-2-carboxamido)-3-methoxypiperidin-1-yl)-4-(1-methyl-1H-1,2,3-triazol-4-yl)thiazole-5-carboxylic acid]",101%
9,"Cc1[nH]c(C(=O)N[C@@H]2CCN(c3nc(-c4nccn4C)c(C(=O)O)s3)C[C@@H]2F)c(Cl)c1Cl [Example 39, 2-((3S,4R)-4-{[(3,4-Dichloro-5-methyl-1H-pyrrol-2-yl)carbonyl]amino}-3-fluoropiperidin-1-yl)-4-(1-methyl-1H-imidazol-2-yl)-1,3-thiazole-5-carboxylic acid]",101%
10,COC(=O)c1sc(N2CC[C@@H](NC(=O)c3[nH]c(C)c(Cl)c3Cl)[C@@H](F)C2)nc1-c1csc(N)n1 [Example 74],100%
11,"CO[C@H]1CN(c2nc(-c3cnccn3)c(C(=O)O)s2)CC[C@H]1NC(=O)c1[nH]c(C)c(Cl)c1Cl [Example 12, 2-((3S,4R)-4-{[(3,4-Dichloro-5-methyl-1H-pyrrol-2-yl)carbonyl]amino}-3-methoxypiperidin-1-yl)-4-pyrazin-2-yl-1,3-thiazole-5-carboxylic acid]",105%
